The values below come from the supplement of paper PMC11208160.

This series in a line: recombinant barcode read abundance after kanamycin selection (control-corrected) (log10(CPM+1)); higher = more efficient recombination; sequences stand for … in AGTGCAGAGAAAATCGGCCAGTTTTCTCTGCCTGCAGTCCGCATGCCGT…ATTTATGCAGCGGACTGCCTTTCTCCCAAAGTGATAAACCGGACAGTATCATGGACCGGTTTTCCCGGTAATCCGTATTTGCAAGGTTGGTTTCACT; site = the 11-nt target. The gist of the method: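 Reported as log10(CPM+1), each value stands for recombination efficiency. That efficiency is the averaged, control-corrected counts per million of barcodes found at recombinant junctions. Cells from a pooled E. coli library pairing targets with IS621 bridge RNA target-binding loops were plated twice on chloramphenicol/ampicillin LB agar (control) and twice on chloramphenicol/ampicillin/kanamycin with 0.1 mM IPTG.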
As for “GAGGCCTTCTGGGTTCTAACCTGTTGCCAGA [GAGGCCTCTTG_LTGcore_TC_RTGcore_TC] (site GAGGCCTCTTG) (LTG core: TC, RTG core: TC)”, the “recombinant barcode read abundance (log10)” value was 0.104.
As for “GAGGCCTTGTGGGTTCTAACCTGTTGCCACA [GAGGCCTCTTG_LTGcore_TG_RTGcore_TG] (site GAGGCCTCTTG) (LTG core: TG, RTG core: TG)”, the “recombinant barcode read abundance (log10)” value was 0.014.
“GAGGCCTTTTGGGTTCTAACCTGTTGCCAAA [GAGGCCTCTTG_LTGcore_TT_RTGcore_TT] (site GAGGCCTCTTG) (LTG core: TT, RTG core: TT)”: the “recombinant barcode read abundance (log10)” value is 0.0543.
Take “GAGTCCAATTGGGTTCTAACCTGTTGCGTAT [GAGTCCACTAC_LTGcore_AT_RTGcore_AT] (site GAGTCCACTAC) (LTG core: AT, RTG core: AT)”: the “recombinant barcode read abundance (log10)” value amounted to 0.0548.
“GAGTCCACATGGGTTCTAACCTGTTGCGTTG [GAGTCCACTAC_LTGcore_CA_RTGcore_CA] (site GAGTCCACTAC) (LTG core: CA, RTG core: CA)”: the “recombinant barcode read abundance (log10)” value was 0.022.
Consider “GAGTCCACTTGGGTTCTAACCTGTTGCGTAA [GAGTCCACTAC_LTGcore_CT_RTGcore_TT] (site GAGTCCACTAC) (LTG core: CT, RTG core: TT)”, for which the “recombinant barcode read abundance (log10)” value worked out at 0.027.
For the sequence “GAGTCCAGGTGGGTTCTAACCTGTTGCGTAG [GAGTCCACTAC_LTGcore_GG_RTGcore_CT] (site GAGTCCACTAC) (LTG core: GG, RTG core: CT)”, the “recombinant barcode read abundance (log10)” value was found to be 0.689.
Regarding “GAGTCCATGTGGGTTCTAACCTGTTGCGTCA [GAGTCCACTAC_LTGcore_TG_RTGcore_TG] (site GAGTCCACTAC) (LTG core: TG, RTG core: TG)”, the “recombinant barcode read abundance (log10)” value was 0.101.
As for “GAGTCCTCATGGGTTCTAACCTGTTGCCTTG [GAGTCCTCTAG_LTGcore_CA_RTGcore_CA] (site GAGTCCTCTAG) (LTG core: CA, RTG core: CA)”, the “recombinant barcode read abundance (log10)” value was 0.185.
The figure for “GAGTCCTCCTGGGTTCTAACCTGTTGCCTAG [GAGTCCTCTAG_LTGcore_CC_RTGcore_CT] (site GAGTCCTCTAG) (LTG core: CC, RTG core: CT)” is 0.191; for “GAGTCCTCGTGGGTTCTAACCTGTTGCCTCG [GAGTCCTCTAG_LTGcore_CG_RTGcore_CG] (site GAGTCCTCTAG) (LTG core: CG, RTG core: CG)” it is 0.0506; for “GAGTCCTCTTGGGTTCTAACCTGTTGCCTAG [GAGTCCTCTAG_LTGcore_CT_RTGcore_CT] (site GAGTCCTCTAG) (LTG core: CT, RTG core: CT)” it is 2.17.
Regarding “GAGTCCTCTTGGGTTCTAACCTGTTGCCTGA [GAGTCCTCTAG_LTGcore_CT_RTGcore_TC] (site GAGTCCTCTAG) (LTG core: CT, RTG core: TC)”, the “recombinant barcode read abundance (log10)” value came out at 1.3.
As for “GAGTCCTCTTGGGTTCTAACCTGTTGCCTTA [GAGTCCTCTAG_LTGcore_CT_RTGcore_TA] (site GAGTCCTCTAG) (LTG core: CT, RTG core: TA)”, the figure is 1.48; as for “GAGTCCTCTTGGGTTCTAACCTGTTGCCTTC [GAGTCCTCTAG_LTGcore_CT_RTGcore_GA] (site GAGTCCTCTAG) (LTG core: CT, RTG core: GA)”, 1.24; as for “GAGTCCTGCTGGGTTCTAACCTGTTGCCTGC [GAGTCCTCTAG_LTGcore_GC_RTGcore_GC] (site GAGTCCTCTAG) (LTG core: GC, RTG core: GC)”, 0.333.
“GAGTCCTGTTGGGTTCTAACCTGTTGCCTAC [GAGTCCTCTAG_LTGcore_GT_RTGcore_GT] (site GAGTCCTCTAG) (LTG core: GT, RTG core: GT)”: the “recombinant barcode read abundance (log10)” value came to 0.0554.
As to “GAGTCCTTATGGGTTCTAACCTGTTGCCTAG [GAGTCCTCTAG_LTGcore_TA_RTGcore_CT] (site GAGTCCTCTAG) (LTG core: TA, RTG core: CT)”, the “recombinant barcode read abundance (log10)” value turned out to be 0.414.
Take “GCGCGACACTGGGTTCTAACCTGTTGCTTGT [GCGCGACCTAA_LTGcore_AC_RTGcore_AC] (site GCGCGACCTAA) (LTG core: AC, RTG core: AC)”: the “recombinant barcode read abundance (log10)” value came out at 0.147.
As for “GCGCGACCATGGGTTCTAACCTGTTGCTTAG [GCGCGACCTAA_LTGcore_CA_RTGcore_CT] (site GCGCGACCTAA) (LTG core: CA, RTG core: CT)”, the “recombinant barcode read abundance (log10)” value is 0.422.
As to “GCGCGACCCTGGGTTCTAACCTGTTGCTTAG [GCGCGACCTAA_LTGcore_CC_RTGcore_CT] (site GCGCGACCTAA) (LTG core: CC, RTG core: CT)”, the “recombinant barcode read abundance (log10)” value stood at 0.907.
Turning to “GCGCGACCTTGGGTTCTAACCTGTTGCTTGC [GCGCGACCTAA_LTGcore_CT_RTGcore_GC] (site GCGCGACCTAA) (LTG core: CT, RTG core: GC)”, the “recombinant barcode read abundance (log10)” value came to 0.0896.
Turning to “GCGCGACCTTGGGTTCTAACCTGTTGCTTGT [GCGCGACCTAA_LTGcore_CT_RTGcore_AC] (site GCGCGACCTAA) (LTG core: CT, RTG core: AC)”, the “recombinant barcode read abundance (log10)” value was determined as 0.0798.
Turning to “GCGCGACCTTGGGTTCTAACCTGTTGCTTTC [GCGCGACCTAA_LTGcore_CT_RTGcore_GA] (site GCGCGACCTAA) (LTG core: CT, RTG core: GA)”, the “recombinant barcode read abundance (log10)” value was 0.07.
Take “GCGCGACGATGGGTTCTAACCTGTTGCTTAG [GCGCGACCTAA_LTGcore_GA_RTGcore_CT] (site GCGCGACCTAA) (LTG core: GA, RTG core: CT)”: the “recombinant barcode read abundance (log10)” value was found to be 0.0201.
Regarding “GCGCGACGCTGGGTTCTAACCTGTTGCTTAG [GCGCGACCTAA_LTGcore_GC_RTGcore_CT] (site GCGCGACCTAA) (LTG core: GC, RTG core: CT)”, the “recombinant barcode read abundance (log10)” value was 0.0605.
As for “GCGCGACGGTGGGTTCTAACCTGTTGCTTAG [GCGCGACCTAA_LTGcore_GG_RTGcore_CT] (site GCGCGACCTAA) (LTG core: GG, RTG core: CT)”, the “recombinant barcode read abundance (log10)” value was 0.048.
Consider “GCGGGACAATGGGTTCTAACCTGTTGCCTTT [GCGGGACCTAG_LTGcore_AA_RTGcore_AA] (site GCGGGACCTAG) (LTG core: AA, RTG core: AA)”, for which the “recombinant barcode read abundance (log10)” value was 0.119.
On to “GCGGGACAGTGGGTTCTAACCTGTTGCCTAG [GCGGGACCTAG_LTGcore_AG_RTGcore_CT] (site GCGGGACCTAG) (LTG core: AG, RTG core: CT)”, for which the “recombinant barcode read abundance (log10)” value is 0.28.
For “GCGGGACCATGGGTTCTAACCTGTTGCCTAG [GCGGGACCTAG_LTGcore_CA_RTGcore_CT] (site GCGGGACCTAG) (LTG core: CA, RTG core: CT)”, the “recombinant barcode read abundance (log10)” value was found to be 0.909.
Turning to “GCGGGACCTTGGGTTCTAACCTGTTGCCTCC [GCGGGACCTAG_LTGcore_CT_RTGcore_GG] (site GCGGGACCTAG) (LTG core: CT, RTG core: GG)”, the “recombinant barcode read abundance (log10)” value is 1.24.
“GCGGGACCTTGGGTTCTAACCTGTTGCCTCT [GCGGGACCTAG_LTGcore_CT_RTGcore_AG] (site GCGGGACCTAG) (LTG core: CT, RTG core: AG)”: the “recombinant barcode read abundance (log10)” value came to 0.713.
The figure for “GCGGGACCTTGGGTTCTAACCTGTTGCCTGT [GCGGGACCTAG_LTGcore_CT_RTGcore_AC] (site GCGGGACCTAG) (LTG core: CT, RTG core: AC)” is 1.21; for “GCGGGACCTTGGGTTCTAACCTGTTGCCTTT [GCGGGACCTAG_LTGcore_CT_RTGcore_AA] (site GCGGGACCTAG) (LTG core: CT, RTG core: AA)” it is 0.927; for “GCGGGACGCTGGGTTCTAACCTGTTGCCTAG [GCGGGACCTAG_LTGcore_GC_RTGcore_CT] (site GCGGGACCTAG) (LTG core: GC, RTG core: CT)” it is 0.137.
As to “GCGGGACTATGGGTTCTAACCTGTTGCCTAG [GCGGGACCTAG_LTGcore_TA_RTGcore_CT] (site GCGGGACCTAG) (LTG core: TA, RTG core: CT)”, the “recombinant barcode read abundance (log10)” value was 0.11.
Take “GCGGGACTCTGGGTTCTAACCTGTTGCCTAG [GCGGGACCTAG_LTGcore_TC_RTGcore_CT] (site GCGGGACCTAG) (LTG core: TC, RTG core: CT)”: the “recombinant barcode read abundance (log10)” value was determined as 0.467.
As for “GCGGGACTCTGGGTTCTAACCTGTTGCCTGA [GCGGGACCTAG_LTGcore_TC_RTGcore_TC] (site GCGGGACCTAG) (LTG core: TC, RTG core: TC)”, the figure is 0.135; as for “GCGGGACTGTGGGTTCTAACCTGTTGCCTCA [GCGGGACCTAG_LTGcore_TG_RTGcore_TG] (site GCGGGACCTAG) (LTG core: TG, RTG core: TG)”, 0.226.
As for “GGACACCAATGGGTTCTAACCTGTTGCCTTT [GGACACCCTAG_LTGcore_AA_RTGcore_AA] (site GGACACCCTAG) (LTG core: AA, RTG core: AA)”, the figure is 0.364; as for “GGACACCCTTGGGTTCTAACCTGTTGCCTGC [GGACACCCTAG_LTGcore_CT_RTGcore_GC] (site GGACACCCTAG) (LTG core: CT, RTG core: GC)”, 1.55; as for “GGACACCGCTGGGTTCTAACCTGTTGCCTAG [GGACACCCTAG_LTGcore_GC_RTGcore_CT] (site GGACACCCTAG) (LTG core: GC, RTG core: CT)”, 0.105.
With “GGACACCTCTGGGTTCTAACCTGTTGCCTGA [GGACACCCTAG_LTGcore_TC_RTGcore_TC] (site GGACACCCTAG) (LTG core: TC, RTG core: TC)”, the “recombinant barcode read abundance (log10)” value is 0.149.
